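A five-concentration, 48-hour dose response in 96-well plates underlies each endpoint, interpolated linearly between surrounding concentrations. GI50 is the concentration that inhibits growth by half.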 Activity calls are given as the source filed them. Rule as the data show it: active = GI50 up to about 1.1 µM and inactive = higher.

Data on 11 molecules can be found in ChEMBL document CHEMBL1201862, “PubChem BioAssay data set” (2004).

Test systems include SK-MEL-5; TK-10; HCT-15; CAKI-1; MOLT-4; UACC-257; COLO 205; U-251; SF-295; A498; T47D; HCT-116; SK-MEL-28; SK-OV-3; OVCAR-5; Hs-578T; MDA-MB-435; 786-0; A549; NCI-H226.
Experiment in all cases: inhibition of tumour cell growth, NCI panel, 48 h

`CC(=O)n1nc(-c2ccccc2)n(/N=C/c2ccc([N+](=O)[O-])o2)c1=O`: the GI50 was 7.13 µM (inactive) in the assay with SK-MEL-5; 11.5 µM (inactive) in the assay with TK-10; 6.84 µM in the assay with HCT-15; 9.46 µM (inactive) in the assay with CAKI-1; 3.24 µM (inactive) in the assay on MOLT-4; 7.23 µM (inactive) in the assay on UACC-257. For the same molecule, the GI50 in the assay with COLO 205 was 7.36 µM (inactive); with U-251 it was 15.9 µM (inactive); in the assay with SF-295, 1.66 µM (inactive); in the assay with A498 it was 2.47 µM (inactive); with T47D, 19.9 µM (inactive); with HCT-116 it was 1.47 µM (inactive). In addition, the GI50 is 9.84 µM (inactive) with SK-MEL-28; 16.6 µM (inactive) in the assay on SK-OV-3; 1.47 µM (inactive) in the assay on OVCAR-5; 8.59 µM (inactive) in the assay on Hs-578T; 6.5 µM (inactive) in the assay with MDA-MB-435; 2.21 µM (inactive) in the assay on 786-0. For the same molecule, the GI50 with A549 is 7.21 µM (inactive).

For the molecule `COc1ccc2c(c1)CCc1cc(OC)ccc1/[N+]([O-])=[N+]\2[O-]`, the GI50 was 16.3 µM (inactive) with SK-MEL-5; 22.4 µM (inactive) with TK-10; 15.6 µM with HCT-15; 17.6 µM (inactive) with CAKI-1; 3.67 µM (inactive) with MOLT-4; 18.3 µM (inactive) in the assay on UACC-257. Besides, the GI50 in the assay with COLO 205 was 14.5 µM (inactive); in the assay on U-251, 17.6 µM (inactive); in the assay on SF-295 it was 19.9 µM (inactive); in the assay on A498, 16.2 µM (inactive); with T47D it was 17 µM (inactive); in the assay with HCT-116, 12.4 µM (inactive). The GI50 was 18.7 µM (inactive) in the assay on SK-MEL-28; 18.7 µM (inactive) with SK-OV-3; 23.2 µM (inactive) with OVCAR-5; 25.1 µM (inactive) in the assay on Hs-578T; 16.3 µM (inactive) in the assay with MDA-MB-435; 6.27 µM (inactive) in the assay on 786-0. In the assay with A549, the GI50 was 26.4 µM (inactive).

Consider `Nc1nc(N)c2c(Cl)c(CNc3ccc(Cl)c(Cl)c3)ccc2n1`, for which the GI50 is < 0.01 µM (active) in the assay with SK-MEL-5; 0.256 µM (active) in the assay on TK-10; below 0.01 µM with HCT-15; < 0.0536 µM (active) with MOLT-4; 0.138 µM (active) with UACC-257; 0.239 µM (active) in the assay with COLO 205. In addition, the GI50 in the assay on U-251 is < 0.0215 µM (active); in the assay on SF-295, < 0.01 µM (active); in the assay with A498, 0.0682 µM (active); in the assay with T47D, 6.85 µM (inactive); in the assay with HCT-116, < 0.01 µM (active); in the assay with SK-MEL-28 it was 0.78 µM (active). Also, the GI50 is 0.574 µM (active) with SK-OV-3; < 0.01 µM (active) in the assay on OVCAR-5; 1.6 µM (inactive) in the assay with Hs-578T; < 0.01 µM (active) with MDA-MB-435; < 0.01 µM (active) in the assay on 786-0; < 0.01 µM (active) in the assay on A549. Moreover, the GI50 with NCI-H226 is 12.9 µM (inactive).

In the case of `Nc1nc2cc(CNc3ccc(C(=O)O)cc3)ccc2nc1-c1ccccc1`, the GI50 with SK-MEL-5 is > 100 µM (inactive); in the assay on TK-10 it was > 100 µM (inactive); in the assay on HCT-15, above 100 µM; with MOLT-4 it was 69.8 µM (inactive); with UACC-257, > 100 µM (inactive); in the assay on COLO 205 it was > 100 µM (inactive). Besides, the GI50 in the assay on U-251 is > 100 µM (inactive); with SF-295 it was > 100 µM (inactive); with A498 it was > 100 µM (inactive); in the assay with T47D, 35.1 µM (inactive); with HCT-116, 69.8 µM (inactive); in the assay with SK-MEL-28 it was > 100 µM (inactive). Moreover, the GI50 in the assay on SK-OV-3, in the assay with OVCAR-5, in the assay on Hs-578T, in the assay on MDA-MB-435, with 786-0 and with A549 was > 100 µM (inactive) each time. The GI50 with NCI-H226 was > 100 µM (inactive).

As for `Cc1nc(N)c(N2CCN(S(N)(=O)=O)CC2)c(O)n1`, the GI50 in the assay with TK-10 was > 100 µM (inactive); with HCT-15 it was above 100 µM; in the assay on MOLT-4, > 100 µM (inactive); in the assay on UACC-257, > 100 µM (inactive); in the assay on COLO 205, > 100 µM (inactive); in the assay on U-251, > 100 µM (inactive). The GI50 in the assay with SF-295, in the assay with A498, in the assay on T47D, in the assay on HCT-116, in the assay on SK-MEL-28 and in the assay on OVCAR-5 was > 100 µM (inactive) each time. For the same molecule, the GI50 in the assay on Hs-578T, in the assay with MDA-MB-435, with 786-0, with A549 and in the assay on NCI-H226 was > 100 µM (inactive) each time.

Take `N#C/C(=N/Nc1[nH]cnc1C(N)=O)C(=O)Nc1ccccc1`: the GI50 in the assay on SK-MEL-5 is 58.5 µM (inactive); in the assay with TK-10 it was 18.5 µM (inactive); in the assay on HCT-15 it was 35.5 µM; in the assay on MOLT-4 it was 4.88 µM (inactive); in the assay on UACC-257, 76.2 µM (inactive); in the assay with COLO 205, 16.5 µM (inactive). In addition, the GI50 in the assay on U-251 is > 100 µM (inactive); in the assay on SF-295, 17.5 µM (inactive); in the assay with T47D, 56.6 µM (inactive); in the assay with HCT-116 it was 14.3 µM (inactive); in the assay on SK-MEL-28, 88.5 µM (inactive); in the assay on SK-OV-3, 4.66 µM (inactive). In addition, the GI50 in the assay with OVCAR-5 was 34.6 µM (inactive); with Hs-578T, 67.8 µM (inactive); in the assay on MDA-MB-435, 22.1 µM (inactive); in the assay with 786-0, 22.8 µM (inactive); in the assay with A549, > 100 µM (inactive); in the assay on NCI-H226, 27 µM (inactive).

Take `CCOC(=O)C(NC(=O)Nc1ccc(Cl)cc1)(OC)C(F)(F)F` (stereo unspecified): the GI50 is 15.1 µM (inactive) in the assay with SK-MEL-5; 30.7 µM (inactive) with TK-10; 0.248 µM with HCT-15; 74.3 µM (inactive) in the assay on CAKI-1; 21.9 µM (inactive) with UACC-257; 12.2 µM (inactive) with COLO 205. Moreover, the GI50 in the assay on U-251 is 52.5 µM (inactive); in the assay with A498, 14 µM (inactive); with T47D, 70 µM (inactive); in the assay on HCT-116, 1.94 µM (inactive); in the assay on SK-MEL-28 it was > 100 µM (inactive); in the assay on SK-OV-3, > 100 µM (inactive). Besides, the GI50 is 21.5 µM (inactive) in the assay with OVCAR-5; 42.4 µM (inactive) in the assay with Hs-578T; 3.25 µM (inactive) with MDA-MB-435; 13.8 µM (inactive) with 786-0; 8.49 µM (inactive) in the assay with A549.

For `Cc1c(NC(=O)CSC(=S)N(C)C)c(=O)n(-c2ccccc2)n1C`, the GI50 with SK-MEL-5 was > 100 µM (inactive); in the assay on TK-10, > 100 µM (inactive); with HCT-15 it was above 100 µM; with CAKI-1, > 100 µM (inactive); in the assay on MOLT-4, > 100 µM (inactive); with UACC-257, > 100 µM (inactive). Besides, the GI50 with COLO 205, in the assay on U-251, with SF-295, in the assay on T47D, with HCT-116 and with SK-MEL-28 was > 100 µM (inactive) throughout. For the same molecule, the GI50 in the assay on SK-OV-3, in the assay with OVCAR-5, in the assay with Hs-578T, in the assay on MDA-MB-435, in the assay with 786-0 and with A549 was > 100 µM (inactive) in each case. The GI50 with NCI-H226 was > 100 µM (inactive).

Regarding `CSC(SC)(C(=O)O)c1cc(-c2c(Cl)cccc2Cl)no1`, the GI50 was 33.7 µM (inactive) in the assay on SK-MEL-5; > 100 µM (inactive) with TK-10; 15.5 µM in the assay on HCT-15; 48.4 µM (inactive) in the assay on CAKI-1; 24.5 µM (inactive) with MOLT-4; 42.9 µM (inactive) in the assay with UACC-257. The GI50 in the assay on COLO 205 is 34.4 µM (inactive); with U-251, 28.4 µM (inactive); with SF-295, 91.2 µM (inactive); in the assay with T47D it was 28.4 µM (inactive); in the assay on HCT-116 it was 26.9 µM (inactive); with SK-MEL-28, > 100 µM (inactive). For the same molecule, the GI50 is > 100 µM (inactive) in the assay with SK-OV-3; 60.1 µM (inactive) in the assay with OVCAR-5; 39.2 µM (inactive) in the assay with Hs-578T; 63.4 µM (inactive) in the assay on MDA-MB-435; 39.5 µM (inactive) in the assay on 786-0; 55.1 µM (inactive) in the assay on A549. Also, the GI50 with NCI-H226 is 25.1 µM (inactive).

For `Cc1ccc(S(=O)(=O)N2CCCN(S(=O)(=O)c3ccc(C)cc3)CCN(S(=O)(=O)c3ccc(C)cc3)CCCSCC2)cc1`, the GI50 in the assay with SK-MEL-5 was > 100 µM (inactive); with MOLT-4 it was > 100 µM (inactive); with COLO 205, > 100 µM (inactive); with U-251, 76.7 µM (inactive); in the assay on SF-295, 89.7 µM (inactive); in the assay with A498, > 100 µM (inactive). Also, the GI50 with T47D, in the assay on HCT-116, with SK-MEL-28, in the assay with SK-OV-3, in the assay on OVCAR-5 and in the assay with Hs-578T was > 100 µM (inactive) throughout. For the same molecule, the GI50 in the assay on MDA-MB-435 is > 100 µM (inactive); in the assay on 786-0, 45.2 µM (inactive); with A549, > 100 µM (inactive); with NCI-H226 it was > 100 µM (inactive).

Consider `COC(=O)c1cc(C)n(CN(Cn2nc(C(=O)OC)cc2C)c2ccccc2)n1`, for which the GI50 in the assay with SK-MEL-5 was 36 µM (inactive); with TK-10 it was > 100 µM (inactive); in the assay on HCT-15, 18 µM; in the assay with CAKI-1, 37.8 µM (inactive); with MOLT-4, 13.4 µM (inactive); with UACC-257 it was 33.3 µM (inactive). Besides, the GI50 with COLO 205 was 16 µM (inactive); in the assay with U-251, 39 µM (inactive); in the assay with SF-295, 32.8 µM (inactive); in the assay on A498, > 100 µM (inactive); in the assay with T47D, 22 µM (inactive); in the assay on HCT-116 it was 19.6 µM (inactive). Besides, the GI50 with SK-MEL-28 is 32.8 µM (inactive); with SK-OV-3, > 100 µM (inactive); with OVCAR-5, 48.4 µM (inactive); with Hs-578T it was > 100 µM (inactive); with MDA-MB-435, 42.9 µM (inactive); in the assay with 786-0, 24.5 µM (inactive). Besides, the GI50 in the assay with A549 was 73.3 µM (inactive).
